Assay results published in patent publication US7223888B2, “Mu opioid receptor ligands: methods of use and synthesis” (President and Fellows of Harvard College, priority 2002, dated 2007).

Key:
[1] = target: T1, hMOR-1 (Homo sapiens, UniProt P35372); test: Opioid receptor competitive binding assay, MOR (3H-DAMGO); conditions: Ki MOR, Table 4; 3H-DAMGO, hMOR-1 stably transfected into CHO cells; errors 95% confidence interval
T1 construct: purchased Amersham Biosciences; host or cells: stably transfected CHO cells (membrane preparation)

[2] = target: T2, hDOR-1 (Homo sapiens, UniProt P41143); test: Opioid receptor competitive binding assay, DOR; conditions: for Ki: Ki DOR, Table 7, 3H-diprenorphine, hDOR-1 stably transfected into HEK-293 cells, errors two standard deviations; for Ki DOR/Ki MOR: Table 13, selectivity for MOR versus DOR (footnote: 3H-DPDPE, hDOR-1)
T2 construct: purchased Amersham Biosciences; host or cells: stably transfected HEK-293 cells (membrane preparation)

[3] = target: T3, KOR (Cavia porcellus, UniProt P41144); test: Opioid receptor competitive binding assay, KOR (3H-U-69,593); parameters: species or system guinea pig; conditions: for Ki: Ki KOR, Table 10, 3H-U-69,593, guinea pig cerebellum preparation, errors two standard deviations; for Ki KOR/Ki MOR: Table 13, selectivity for MOR versus KOR
T3 construct: from tissue; host or cells: guinea pig cerebellum preparation

[4] = target: T1, hMOR-1; test: MOR GTP-γ-S assay (MOR activation); type: biochemical; conditions: Table 15; compound 10 mM (footnote); percentage of DAMGO induced GTP-g-35S specific binding; CHO membranes with hMOR-1
Description: MOR GTP-γ-S assay was run in the same 200 μL, 96 well format as the binding assay. Each microassay contained experimental compound, 0.04 nM GTP-γ-^35S, 9 μM GDP, and about 0.02 nM MOR (from stably transfected CHO cells), in assay buffer (50 mM Tris-HCl, 3 mM MgCl2, 0.2 mM EGTA, 100 mM NaCl, pH 7.4). The assays were incubated for two to three hours at room temperature, then filtered onto a filter plate. The plate was dried; scintillation fluid was added, and the wells were counted for ^35S. Blank assays were run to determine non-specific binding. […] The results were averaged; the non-specific counts were subtracted, and the resulting value was expressed as a percent of the value obtained for DAMGO. The error reported is two standard deviations from the mean of the quadruplicate experiment. The values were compared using one way Anova with Tukey's post-hoc analysis.

In the case of `Cc1cc(O)cc(C)c1CC(N)C(O)C/C=C/C(O)C(Cc1ccccc1)C(=O)NCCc1ccccc1` (single isomer, unassigned) [(S,S,S,R)-26, 2,6-Dihydroxy-1-(4-hydroxy-2,6-dimethyl-benzyl)-7-phenethylcarbamoyl-8-phenyl-oct-4-enyl-ammonium], the Ki [1] is reported as 0.29 ± 0.06 nM, the Ki [2] is reported as 99 ± 11 nM and the “Ki DOR/Ki MOR” value [2] is reported as 340. For the same molecule, the Ki [3] was 42 ± 29 nM, the “Ki KOR/Ki MOR” value [3] was 140 and the “% GTP-γ-35S bound” value [4] was 40 ± 3%.
For `Cc1cc(O)cc(C)c1CC(N)C(O)C/C=C/C(O)C(Cc1ccccc1)C(=O)NC(CO)Cc1ccccc1` [(S,S,S,R)-27], the Ki [1] was 0.16 ± 0.06 nM, the Ki [2] was 54 ± 8 nM and the Ki [3] was 69 ± 14 nM. The “% GTP-γ-35S bound” value [4] was 44 ± 6%.
For `Cc1cc(O)cc(C)c1CC(N)C(O)C/C=C/C(O)C(Cc1ccccc1)C(=O)OC(CO)Cc1ccccc1` [(S,S,S,R)-30, 7-(1-Benzyl-2-hydroxy-ethoxycarbonyl)-2,6-dihydroxy-1-(4-hydroxy-2,6-dimethyl-benzyl)-8-phenyl-oct-4-enyl-ammonium], the Ki [1] was 0.44 ± 0.01 nM, the Ki [2] was 17 ± 6 nM and the “Ki DOR/Ki MOR” value [2] was 39. The Ki [3] was 85 ± 1 nM, the “Ki KOR/Ki MOR” value [3] was 190 and the “% GTP-γ-35S bound” value [4] was 62 ± 4%.
